“And” between values parts separate entries of the source, which are not always exact repeats. Identical values can stand only once.
Key:
Format in all cases: in vivo
[1] = system: model rat of diabetes (streptozotocin); test: Test 1: neural stimulus conduction rate (sciatic nerve) in STZ diabetes model rat; details: STZ (65 mg/kg i.p.) diabetes rat, 8 mg/kg daily i.p. for 8 weeks, mean ± S.E.
Protocol: (§1) To a rat, 65 mg/kg of streptozotocin (STZ) was administered intraperitoneally to prepare a model rat of diabetes. After intraperitoneal administration of Compound 4 obtained in Preparation Example 4 at a daily dose of 8 mg/kg for 8 weeks from two days after administration of STZ, the conduction rate of stimulus to sciatic nerve was measured by inserting a needle electrode for potential measurement into the vicinity of the right sciatic nerve, right Achilles tendon, and right plantar. Measurement was conducted three times and the mean of them was designated as the nerve stimulus conduction rate of the rat. Each group consisted of 10 to 12 rats.

[2] = system: model rat of diabetes (streptozotocin); test: Test 2: maximum quantity excreted by single urination, metabolic cage, STZ diabetes model rat; details: 8 mg/kg daily i.p. for 8 weeks, recorded for 24 hours in metabolic cage, mean ± S.E.
Protocol: as §1
In a similar manner to Test 1, Compound 4 obtained in Preparation Example 4 was administered intraperitoneally to a rat at a daily dose of 8 mg/kg day for 8 weeks from two days after administration of STZ. Its urination pattern such as urination frequency and urination amount was then recorded for 24 hours at 2.5-min intervals by using a metabolic cage.

[3] = system: model rat of diabetes (streptozotocin); test: Test 3: bladder capacity and urination efficiency by intravesical pressure measurement under anesthesia, STZ diabetes model rat; details: 8 mg/kg daily i.p. for 8 weeks, mean ± S.E.
Protocol: as §1
In a similar manner to Test 1, Compound 4 obtained in Preparation Example 4 was administered intraperitoneally to a rat at a daily dose of 8 mg/kg for 8 weeks from two days after administration of STZ. The intravesical pressure of the rat was then measured under anesthesia, whereby bladder capacity and urination efficiency were determined.
The urination efficiency was determined from an excreted quantity/bladder capacity ratio.
Urination efficiency (%)=100×excreted quantity/bladder capacity

With `CC1=C(CCCCCCCCCCCCCCCO)C(C)(C)CCC1=O` [Compound 4, 3-(15-Hydroxypentadecyl)-2,4,4-trimethyl-2-cyclohexen1-one] the “Conduction rate of stimulus to nerve” value [1] was 45.5 m/sec and 45.5 ± 1.2 m/sec, the “Maximum amount excreted by single urination” value [2] was 3.71 ± 0.26 mL and the “Bladder capacity (urination-inducing)” value [3] was 0.54 ± 0.07 mL. The “Urination efficiency (100×excreted quantity/bladder capacity)” value [3] was 75.0±6.1%.

— US7838565B2, “Use of cyclohexenone derivatives in the manufacture of a medicament for treating diabetic complications” (Meiji Dairies Corporation, priority 2001, dated 2010)
